In patent US20050130252A1, “Stabilized susceptibility tests of aerobic pathogens” (Wyeth Holdings Corporation, priority 2003, published 2005):
≈ marks a conversion by molar mass, not a printed value. Read-outs that look alike come from different tables or passages of the source.

System: E. coli ATCC 25922
Assay: Broth microdilution MIC
Assay type: cell-based, Escherichia coli
Details: Escherichia coli
Procedure: The process for preparing susceptibility test medium are the following steps: • a. Preparing Mueller Hinton Broth II medium by adding 22 grams powdered media to 1.0 liter distilled water; • b. Autoclaving (121° C., 15 psi, 15 minutes) and cooling the medium; • c. Adding Oxyrase® up to about 10% final volume and keeping at 35-37° C. in an incubator for 30 minutes; • d. Adding about 50 μL to each well of a 96 well microtiter plate; • e. Weighing drug and adding broth to drug to bring up to about (standard 128 μg/ml); • f. Adding 50 μL of the drug to the first column of the titer plate; • g. Diluting by two-fold serial diluting across or down the plate. • h. Preparing a Prompt™ inoculum at 10^8 CFU/ml; • i. Diluting inoculum 1:100 in the broth at […] in 9.9 ml (1:100) is 10^6 colony forming units (CFU) forming the adjusted inoculum; • j. Adding 50 μL of the adjusted inoculum to the wells of the microtiter plate; • k. Incubating the plates at 35-37° C. for 18-22 hours; and • l. Reading, with the unaided eye, the MIC.
The in vitro activities of tigecycline and control antibiotics were determined by the broth microdilution method as recommended by the NCCLS. (National Committee for Clinical Laboratory Standards, 2003. Methods for Dilution Antimicrobial Susceptibility Tests for Bacteria That Grow Aerobically; Approved Standards: M7-A6, Sixth ed, vol. 23., National Committee for Clinical Laboratory Standards Wayne, Pa.) was used for the standard procedures. MBH with 5% lysed horse blood was used for testing S. pneumoniae and Haemophilus Test Medium was used for testing H. influenzae. Oxyrase® (Oxyrase Inc, Mansfield, Ohio) was used according to the manufacturer's instructions by adding 1 ml of Oxyrase® to 50 ml of media. Media age studies were performed by preparing MHB in multiple flasks, then storing the media under various conditions. MICs were usually performed in duplicate on each day of testing. Storage under anaerobic conditions was conducted in an anaerobic chamber (MACS MG 1000, Don Whitley Scientific LTD). The pH of the media was determined by pH meter (Corning 430). A comparison of the in vitro activity of tigecycline by agar and broth dilution methodolgies with and without Oxyrase® against clinical isolates is shown in Table 1.

Question: With CN(C)c1cc(NC(=O)CNC(C)(C)C)c(O)c2c1C[C@H]1C[C@H]3[C@H](N(C)C)C(O)=C(C(N)=O)C(=O)[C@@]3(O)C(O)=C1C2=O [Tigecycline, tigecycline] as the molecule, how does the MIC (ATCC25922, 0 h, E. coli ATCC 25922, Day 0, Pre-prepared media, room temperature, N = 6) read?
Answer: Its MIC is 0.12 µg/mL (≈ 0.205 µM).

Question: And the MIC (ATCC25922, 0 h, E. coli ATCC 25922, Day 0, media Fresh from Powder 2° C., N = 6)?
Answer: The MIC was 0.03 to 0.06 µg/mL (≈ 0.0512 to 0.102 µM).

Question: What about the MIC (ATCC25922, 0 h, E. coli ATCC 25922, Day 0, media Fresh from Powder, room temperature, N = 6) of the same molecule?
Answer: The MIC was 0.03 µg/mL (≈ 0.0512 µM).

Question: What about the MIC (ATCC25922, 24 h, E. coli ATCC 25922, Day 1, Pre-prepared media, room temperature, N = 6) of the same molecule?
Answer: Its MIC is 0.12 to 0.25 µg/mL (≈ 0.205 to 0.427 µM).

Question: What about the MIC (ATCC25922, 24 h, E. coli ATCC 25922, Day 1, media Fresh from Powder 2° C., N = 6) of the same molecule?
Answer: The MIC was 0.03 to 0.06 µg/mL (≈ 0.0512 to 0.102 µM).

Question: And the MIC (ATCC25922, 24 h, E. coli ATCC 25922, Day 1, media Fresh from Powder, room temperature, N = 6)?
Answer: The MIC was 0.06 µg/mL (≈ 0.102 µM).

Question: What about the MIC (ATCC25922, 168 h, E. coli ATCC 25922, Day 7, Pre-prepared media, room temperature, N = 6) of the same molecule?
Answer: The MIC was 0.12 to 0.25 µg/mL (≈ 0.205 to 0.427 µM).

Question: And the MIC (ATCC25922, 168 h, E. coli ATCC 25922, Day 7, media Fresh from Powder 2° C., N = 6)?
Answer: The MIC was 0.06 µg/mL (≈ 0.102 µM).

Question: And the MIC (ATCC25922, 168 h, E. coli ATCC 25922, Day 7, media Fresh from Powder, room temperature, N = 6)?
Answer: Its MIC is 0.12 µg/mL (≈ 0.205 µM).

Question: And the MIC (ATCC25922, 336 h, E. coli ATCC 25922, Day 14, Pre-prepared media, room temperature, N = 6)?
Answer: The MIC was 0.12 to 0.25 µg/mL (≈ 0.205 to 0.427 µM).

Question: What about the MIC (ATCC25922, 336 h, E. coli ATCC 25922, Day 14, media Fresh from Powder 2° C., N = 6) of the same molecule?
Answer: Its MIC is 0.12 to 0.25 µg/mL (≈ 0.205 to 0.427 µM).

Question: What about the MIC (ATCC25922, 336 h, E. coli ATCC 25922, Day 14, media Fresh from Powder, room temperature, N = 6) of the same molecule?
Answer: Its MIC is 0.12 to 0.25 µg/mL (≈ 0.205 to 0.427 µM).

Question: And the MIC (ATCC25922, 336 h, read-out: Minimal Inhibitory Concentration, E. coli ATCC 25922, media Aged Aerobic (2 weeks at RT under room air), N = 4)?
Answer: Its MIC is 0.12 to 0.25 µg/mL (≈ 0.205 to 0.427 µM).

Question: And the MIC (ATCC25922, 504 h, E. coli ATCC 25922, Day 21, media Fresh from Powder 2° C., N = 6)?
Answer: Its MIC is 0.25 µg/mL (≈ 0.427 µM).

Question: And the MIC (ATCC25922, 504 h, E. coli ATCC 25922, Day 21, media Fresh from Powder, room temperature, N = 6)?
Answer: Its MIC is 0.12 to 0.25 µg/mL (≈ 0.205 to 0.427 µM).

Question: And the MIC (ATCC25922, 672 h, E. coli ATCC 25922, Day 28, Pre-prepared media, room temperature, N = 6)?
Answer: The MIC was 0.12 to 0.25 µg/mL (≈ 0.205 to 0.427 µM).

Question: What about the MIC (ATCC25922, 672 h, E. coli ATCC 25922, Day 28, media Fresh from Powder 2° C., N = 6) of the same molecule?
Answer: Its MIC is 0.12 µg/mL (≈ 0.205 µM).

Question: And the MIC (ATCC25922, 672 h, E. coli ATCC 25922, Day 28, media Fresh from Powder, room temperature, N = 6)?
Answer: The MIC was 0.12 to 0.25 µg/mL (≈ 0.205 to 0.427 µM).

Question: What about the MIC (ATCC25922, read-out: Minimal Inhibitory Concentration (modal value), E. coli ATCC 25922, Aged Media + Oxyrase, N = 8) of the same molecule?
Answer: Its MIC is 0.12 µg/mL.

Question: And the MIC (ATCC25922, read-out: Minimal Inhibitory Concentration (modal value), E. coli ATCC 25922, Aged media, N = 8)?
Answer: Its MIC is 0.25 µg/mL (≈ 0.427 µM).

Question: And the MIC (ATCC25922, read-out: Minimal Inhibitory Concentration (modal value), E. coli ATCC 25922, Fresh Media + Oxyrase, N = 8)?
Answer: Its MIC is 0.12 µg/mL.

Question: And the MIC (ATCC25922, read-out: Minimal Inhibitory Concentration (modal value), E. coli ATCC 25922, Freshly Prepared Media, N = 8)?
Answer: Its MIC is 0.12 µg/mL (≈ 0.205 µM).

Question: And the MIC (ATCC25922, read-out: Minimal Inhibitory Concentration, E. coli ATCC 25922, 2% Oxyrase)?
Answer: Its MIC is 0.03 µg/mL (≈ 0.0512 µM).

Question: What about the MIC (ATCC25922, read-out: Minimal Inhibitory Concentration, E. coli ATCC 25922, Aged Media + Oxyrase, N = 8) of the same molecule?
Answer: Its MIC is 0.12 to 0.25 µg/mL.

Question: And the MIC (ATCC25922, read-out: Minimal Inhibitory Concentration, E. coli ATCC 25922, Aged media, N = 8)?
Answer: The MIC was 0.25 to 0.5 µg/mL (≈ 0.427 to 0.854 µM).

Question: And the MIC (ATCC25922, read-out: Minimal Inhibitory Concentration, E. coli ATCC 25922, Commercially Prepared media, N = 4)?
Answer: Its MIC is 0.12 to 0.25 µg/mL (≈ 0.205 to 0.427 µM).

Question: What about the MIC (ATCC25922, read-out: Minimal Inhibitory Concentration, E. coli ATCC 25922, Fresh Media + Oxyrase, N = 8) of the same molecule?
Answer: The MIC was 0.06 to 0.12 µg/mL.

Question: What about the MIC (ATCC25922, read-out: Minimal Inhibitory Concentration, E. coli ATCC 25922, Freshly Prepared Media, N = 8) of the same molecule?
Answer: Its MIC is 0.12 to 0.25 µg/mL (≈ 0.205 to 0.427 µM).

Question: And the MIC (ATCC25922, read-out: Minimal Inhibitory Concentration, E. coli ATCC 25922, Freshly Prepared media, N = 4)?
Answer: The MIC was 0.03 µg/mL (≈ 0.0512 µM).

Question: And the MIC (ATCC25922, read-out: Minimal Inhibitory Concentration, E. coli ATCC 25922, MHB II + 0.05% Catalase)?
Answer: The MIC was 0.5 µg/mL.

Question: And the MIC (ATCC25922, read-out: Minimal Inhibitory Concentration, E. coli ATCC 25922, MHB II + 0.05% L-ascorbic Acid)?
Answer: Its MIC is 2 µg/mL.

Question: And the MIC (ATCC25922, read-out: Minimal Inhibitory Concentration, E. coli ATCC 25922, MHB II + 0.05% L-cysteine)?
Answer: Its MIC is 0.5 µg/mL.

Question: What about the MIC (ATCC25922, read-out: Minimal Inhibitory Concentration, E. coli ATCC 25922, MHB II + 0.05% Sodium Pyruvate) of the same molecule?
Answer: Its MIC is 0.12 µg/mL.

Question: What about the MIC (ATCC25922, read-out: Minimal Inhibitory Concentration, E. coli ATCC 25922, MHB II + 0.05% Thioglycolate) of the same molecule?
Answer: The MIC was 0.12 µg/mL.

Question: And the MIC (ATCC25922, read-out: Minimal Inhibitory Concentration, E. coli ATCC 25922, MHB II + 2% Oxyrase)?
Answer: Its MIC is 0.06 µg/mL.

Question: And the MIC (ATCC25922, read-out: Minimal Inhibitory Concentration, E. coli ATCC 25922, Mueller Hinton Broth II (Fresh))?
Answer: Its MIC is 0.06 to 0.25 µg/mL (≈ 0.102 to 0.427 µM).

Question: What about the MIC (ATCC25922, read-out: Minimal Inhibitory Concentration, E. coli ATCC 25922, Mueller Hinton Broth II (MHB II)) of the same molecule?
Answer: The MIC was 0.12 to 0.25 µg/mL (≈ 0.205 to 0.427 µM).
